Laboratory results as given in article PMC9609429 (Pharmaceuticals, 2022).

Columns and labels:
β1-adrenergic receptor = molecular target: T1, β1-adrenergic receptor (Rattus norvegicus, UniProt P18090); test: β1-adrenoceptor radioligand binding assay ([3H]-CGP-12177, rat cerebral cortex)
T1 construct: from tissue; host or cells: rat cerebral cortex homogenate
Experimental: The α1-, α2-, and β1-adrenoceptor radioligand binding assay was carried out on the rat cerebral cortex. […] The brains were homogenized using ULTRA-TURRAX homogenizer in 10 mL of an ice-cold 50 mM Tris–HCl buffer (pH 7.6). Homogenates were centrifuged at 20,000× g for 20 min (0–4 °C). Next, the cell pellet was resuspended in the Tris–HCl buffer and centrifuged again. Radioligand binding assays were performed in plates (MultiScreen/Millipore). The final incubation mixture (volume 300 μL) consisted of 240 μL of the tissue suspension, 30 μL of radioligand solution, and 30 μL of the buffer containing 7–8 concentrations of the tested compound. […] The incubation was terminated by rapid filtration through Whatman GF/C filters using a vacuum manifold (Millipore). The filters were then washed twice with the assay buffer and placed in scintillation vials with a liquid scintillation cocktail. […] All the assays were made in duplicates and the inhibitory constants (Ki) were estimated.

normotensive rats = test: Influence on blood pressure in normotensive rats; assay type: in vivo, rat
Experimental: Normotensive rats were anesthetized with thiopental (75 mg/kg ip). The right carotid artery was cannulated with a polyethylene tube filled with heparin solution to allow pressure measurements, using a Datamax apparatus (Columbus Instruments, Columbus, OH, USA). The tested compound was administered intraperitoneally after 15 min of stabilization period and its effect on blood pressure was measured.

[1] = 1.25 mg/kg ip, from 5 min after injection

T1 sequence (P18090 whole entry): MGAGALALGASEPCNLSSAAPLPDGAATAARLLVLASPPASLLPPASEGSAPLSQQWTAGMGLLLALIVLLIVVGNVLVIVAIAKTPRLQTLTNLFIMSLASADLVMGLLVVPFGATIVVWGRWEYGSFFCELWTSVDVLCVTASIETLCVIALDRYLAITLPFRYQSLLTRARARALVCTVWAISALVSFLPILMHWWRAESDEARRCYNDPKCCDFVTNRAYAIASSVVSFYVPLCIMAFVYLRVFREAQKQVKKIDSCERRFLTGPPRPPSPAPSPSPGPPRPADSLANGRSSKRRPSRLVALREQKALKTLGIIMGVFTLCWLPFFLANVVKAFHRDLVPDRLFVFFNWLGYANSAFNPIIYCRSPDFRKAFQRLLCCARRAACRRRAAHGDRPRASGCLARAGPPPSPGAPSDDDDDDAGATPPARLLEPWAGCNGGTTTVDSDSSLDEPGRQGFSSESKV

**Q.** What does the source list for CCC(CN1CCN(c2ccccc2OC)CC1)NCCCOc1c(C)cccc1C.Cl.Cl (stereo not shown) [HBK-10, N-(3-(2,6-dimethylphenoxy)propyl)-1-(4-(2-methoxyphenyl)piperazin-1-yl)butan-2-amine dihydrochloride]?
**A.** Ki (β1-adrenergic receptor; rat cortex tissue, [3H]-CGP-12177, read-out: Adrenergic Receptors—pKi β1 (converted)): 3.02 µM; affinity towards β1-adrenoceptor lower compared with the α1 receptor (β1-adrenergic receptor; rat cortex, α1 vs β1): > 1000 fold; effect on diastolic blood pressure (normotensive rats; 0.625 mg/kg ip): did not affect; effect on systolic blood pressure (normotensive rats; 0.625 mg/kg ip): did not affect; reduction of diastolic blood pressure (normotensive rats; [1]): 12.5–18.3%; reduction of systolic blood pressure (normotensive rats; [1]): 11.2–18.3%; dose reducing blood pressure relative to median effective dose in adrenaline-induced model (normotensive rats; single ip administration): 10 fold
